“Also recorded” adds a separate entry of the source. Where a SMILES comes first, the peptide text is derived from it. Bridges are numbered along the chain shown (N, C = ends). [ ]: non-standard residue; d: D form. Cha = N[C@@H](CC1CCCCC1)C(=O)O

The target in data set [1] is T1, cFos (Homo sapiens, UniProt P01100). Nature of the data set: Thermal denaturation (CD at 222 nm) of peptide-cFos mixtures. Type of data set: binding. To be noted: judged from thermal denaturation profiles and CD spectra of mixtures with cFos. As for the experimental part: (§1) Thermal denaturation data and spectra for the cFos homotypic complex (black), helix constrained peptide (blue), and heteromeric complex (red) were recorded using 200 µL of sample at 150µM total peptide concentration (Figure 4, Figure S1). Next, 100 µL of each solution was mixed and the spectra taken such that the final total peptide concentration was also 150 µM. More experimental procedures can be found in File S1.

Data set [2] has as its target T1, cFos. Nature of the data set: Circular dichroism spectra of peptide-cFos mixtures. In kind it is binding. To be noted: mixture with cFos; for Peptide-cFos Ɵ222/208 (20ºC): CD ratio, 20 °C; for Peptide-cFos Fraction helical (ƒH): CD 222 nm, 20°C, 150 µM total peptide. The procedure: (§2) Circular dichroism (CD) spectroscopy was conducted with an Applied Photophysics Chirascan CD spectroploarimeter (Leatherhead, U.K.) using a 200 µL sample in a CD cell with a 1 mm path length (Hellma, Müllheim Germany). Samples contained 150 µM total peptide concentration suspended in 10 mM potassium phosphate and 100 mM potassium fluoride at pH 7. The CD spectra of the homodimeric and heterodimeric complexes were scanned between 300 nm and 190 nm at 20°C (for both pre- and post-melt samples to check for reversibility of unfolding) and at −8°C to assess helical levels and coiled-coil structure (see Figure 4).
as §1
(§3) Supplementary file pone.0059415.s005.doc: Table S1 Helical Data obtained via Circular Dichroism. Shown are A) homo and B) heteromeric samples. […] A ratio higher than 1 is generally indicated evidence that a coiled coil has formed, while a ratio of less than 0.9 is taken to indicate the presence of isolated helices. Shown in column two are the calculated fractional helicities taken from the Molar Residue Ellipticity at […]. Fraction helicity (ƒH) can be calculated as ƒH = (θ222−θc)/(θ222∞−θc) where θ222∞ = (−44000+250*T)*(1−k/Nr) and θc = 2220–(53*T). In these equations the wavelength dependent constant k = 2.4 (at 222 nm), Nr = the number of residues, and T = 20 degrees Celsius (293 K). The 222/208 ratio is used to provide evidence on whether the helices are monomeric or are adopting a quaternary structure. Measured helicity for the original JunWCANDI peptide and for the template on which the hydrocarbon constraints have been introduced. […] The N- and C-capping motifs have been removed for the constrained since they are considered to be largely redundant upon their introduction. (DOC) Click here for additional data file.

Another data set deals with cJun. The experiment in a line: CD spectra and thermal denaturation of peptide-cJun mixtures (specificity). Type of data set: binding. To be noted: equimolar with cJun. The procedure:
(§4) To establish if the truncated and constrained peptides retained the interaction specificity of the JunWCANDI parent peptide, peptides capable of interacting with cFos were also incubated at equimolar concentrations with cJun and monitored via CD spectra. […] In addition, a dimer exchange experiment was performed for the most helical peptide 24. Spectra for a cJun-peptide solution and a cFos solution should, upon mixing, generate an averaged spectrum if there was no dimer exchange. […] Spectra for both mixtures can be superimposed (Figure S4).
Supplementary file pone.0059415.s002.tiff: Figure S2 Raw thermal melting data for homo and heterodimeric complexes with cJun for constrained peptides 1 , 2 , 8 , 9, 10 , 11, 12, 17, 20, 22, and 24 . […] (TIFF) Click here for additional data file.
Supplementary file pone.0059415.s003.tiff: Figure S3 CD spectra as MRE both in isolation and as a mixture with cJun. From these raw data it is also clear that no interaction is occurring between constrained peptides and cJun. Rather, specta appear as averages of their homodimeric components (i.e. superimpose with the homomeric averages). We observe no heteromeric helical signal (red) that exceeds the average (black dotted line) of cJun (black) and the constrained peptide (blue), that would be anticipated for a non-interacting pair. (TIFF) Click here for additional data file.
Supplementary file pone.0059415.s005.doc: Table S1 Helical Data obtained via Circular Dichroism. Shown are A) homo and B) heteromeric samples. […] A ratio higher than 1 is generally indicated evidence that a coiled coil has formed, while a ratio of less than 0.9 is taken to indicate the presence of isolated helices. Shown in column two are the calculated fractional helicities taken from the Molar Residue Ellipticity at […]. Fraction helicity (ƒH) can be calculated as ƒH = (θ222−θc)/(θ222∞−θc) where θ222∞ = (−44000+250*T)*(1−k/Nr) and θc = 2220–(53*T). […] Measured helicity for the original JunWCANDI peptide and for the template on which the hydrocarbon constraints have been introduced. […]

Data set [3] can be described thus: Circular dichroism helicity of peptide in isolation (homotypic). To be noted: peptide in isolation; for Homotypic Ɵ222/208 (20ºC): CD ratio, 20 °C; for Fraction helical (ƒH), homotypic: from CD molar residue ellipticity at 222 nm, 20°C, 150 µM, pH 7. Type of data set: physicochemical. As for the experimental part: as §2, §3
(Circular dichroism is widely used to follow secondary structure.)

A further data set can be described thus: Serum stability. In kind it is in vitro ADME. To be noted: 200 µL of 1 mg/ml peptide in water added to 800 µL human serum, 37°C, aliquots 0-24 h, acetonitrile/water 3:1, LC-MS-MS total ion counts. The procedure:
Stock solutions of 12 and 24 in both constrained forms and linear forms lacking constraints were prepared in water (1 mg/ml), 200 µL was added to human serum (800 µL) and incubated at 37°C. Aliquots (100 µL) of this diluted serum were removed at 0, 0.5, 1, 2, 4, 16, and 24 hours and a mixture of acetonitrile/water 3∶1 (300 µL) was added to each aliquot before centrifuging (17000 rpm, 15 min). Aliquots (100 µL) of the supernatant were then analysed by LC-MS-MS after passing through a 2.1×150 mm Phenomenex 300A C18 5 µm column at 10% per minute linear gradient from 0–100% acetonitrile over 12 minutes. The amount of starting material was quantified by determination of total ion counts for the m/3+ and m/4+ ion for each peptide (Figure 3).

In data set [4] the target is T1, cFos. Nature of the data set: Dimer exchange experiments between cJun, cFos and constrained peptide (CD spectra). Type of data set: binding. To be noted: equimolar mixtures, CD spectra compared with average of constituent spectra. The procedure:
as §4
(TIFF) Click here for additional data file.

T1 sequence (P01100 whole entry): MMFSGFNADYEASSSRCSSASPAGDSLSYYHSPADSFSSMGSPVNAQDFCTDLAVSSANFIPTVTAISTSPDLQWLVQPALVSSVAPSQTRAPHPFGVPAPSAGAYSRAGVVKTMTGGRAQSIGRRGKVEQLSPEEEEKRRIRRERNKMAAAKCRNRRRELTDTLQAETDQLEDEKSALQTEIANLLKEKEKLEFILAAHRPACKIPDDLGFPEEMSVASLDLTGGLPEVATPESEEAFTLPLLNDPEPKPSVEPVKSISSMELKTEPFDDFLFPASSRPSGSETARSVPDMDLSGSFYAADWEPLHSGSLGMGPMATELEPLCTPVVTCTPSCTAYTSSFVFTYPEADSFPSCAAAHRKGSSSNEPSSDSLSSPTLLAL

`CC[C@H](C)[C@H](NC(=O)[C@H](Cc1c[nH]cn1)NC(=O)[C@@H]1CC(=O)NCCCC[C@H](NC(=O)[C@H](C)NC(=O)[C@H](CCCCN)NC(=O)[C@H](CO)NC(=O)[C@H](CCCNC(=N)N)NC(=O)[C@H](CC(C)C)NC(=O)[C@@H]2CC(=O)NCCCC[C@H](NC(=O)[C@H](CCCCN)NC(=O)[C@H](CC3CCCCC3)NC(C)=O)C(=O)N[C@@H](CCC(=O)O)C(=O)N[C@@H]([C@@H](C)CC)C(=O)N[C@@H](Cc3ccc(O)cc3)C(=O)N2)C(=O)N[C@@H](CCSC)C(=O)N[C@@H](CC(C)C)C(=O)N[C@@H](CCCNC(=N)N)C(=O)N1)C(=O)N[C@@H](C)C(=O)N[C@@H](CCC(N)=O)C(=O)N[C@@H](CC1CCCCC1)C(N)=O` [compound 20] (Ac-[Cha]KKEIYDLRSKAKMLRDHIAQ[Cha]-NH2; lactam 3-7, 13-17): the “interaction with cFos (in words)” value on cFos [1] is listed as “profiles consistent with a strong interaction affinity for cFos”. Further, at cFos [2], the “Peptide-cFos Ɵ222/208 (20ºC)” value turned out to be 0.92 and the “Peptide-cFos Fraction helical (ƒH)” value is 0.49. In addition, the “interaction with cJun (in words)” value in the data set with cJun is given as “none of the peptides form a stable interaction with cJun”. Further, in data set [3], the “Homotypic Ɵ222/208 (20ºC)” value is given as 0.91 and the “Fraction helical (ƒH), homotypic” value came out at 0.51.

Turning to `CC[C@H](C)[C@@H]1NC(=O)[C@H](Cc2c[nH]cn2)NC(=O)[C@@H](NC(=O)[C@H](CCCNC(=N)N)NC(=O)[C@H](CC(C)C)NC(=O)[C@@H]2CC(=O)NCCCC[C@H](NC(=O)[C@H](CCCNC(=N)N)NC(=O)[C@H](CC(C)C)NC(=O)[C@@H]3CC(=O)NCCCC[C@H](NC(=O)[C@H](CCCNC(=N)N)NC(=O)[C@H](CC4CCCCC4)NC(C)=O)C(=O)N[C@@H](CCC(=O)O)C(=O)N[C@@H]([C@@H](C)CC)C(=O)N[C@@H](Cc4ccc(O)cc4)C(=O)N3)C(=O)N[C@@H](CCCCN)C(=O)N[C@@H](C)C(=O)N[C@@H](CC(N)=O)C(=O)N2)CCCCNC(=O)C[C@@H](C(=O)N[C@@H](CC2CCCCC2)C(N)=O)NC(=O)[C@H](C)NC1=O` [compound 24, Ac-cyclo-(3,7; 10,14; 17,21)-ChaR[KEIYD]LR[KKAND]LR[KHIAD]Cha-NH2] (Ac-[Cha]RKEIYDLRKKANDLRKHIAD[Cha]-NH2; lactam 3-7, 10-14, 17-21), the “stability in human serum” value in “Serum stability” is given as “resistant to proteolytic degradation in serum; also recorded: fairly stable in human serum over 4 h; also recorded: much more stable in human serum at 37° than the same peptide lacking the constraints”. Moreover, at cFos [2], the “Peptide-cFos Ɵ222/208 (20ºC)” value is 1.00 and the “Peptide-cFos Fraction helical (ƒH)” value is given as 0.52. Besides, the “interaction with cJun (in words)” value in the data set with cJun is “none of the peptides form a stable interaction with cJun”. For the same compound, in data set [3], the “Homotypic Ɵ222/208 (20ºC)” value is listed as 1.08 and the “Fraction helical (ƒH), homotypic” value is 0.69. Moreover, on cFos [4], the “dimer exchange on mixing cFos-cFos with cJun-peptide” value was “dimer exchange did occur; also recorded: dimer exchange has occurred” and the “dimer exchange on mixing cJun-cJun with cFos-peptide” value is “no change in binding partner for peptide had occurred; also recorded: no change has occurred”.

The record behind these values is PMC3609778, “Truncated and Helix-Constrained Peptides with High Affinity and Specificity for the cFos Coiled-Coil of AP-1” (PLoS ONE, 2013).
